Laboratory results taken from US20220257569A1, “INDOLE-OXADIAZOLE COMPOUNDS AND THEIR THERAPEUTIC USE” (THE GOVERNING COUNCIL OF THE UNIVERSITY OF TORONTO, priority 2018, published 2022).

Key:
[1] = Rat liver microsomal stability assay; format: in vitro ADME; conditions: both sexes, pH 7.4; pooled rat liver microsomes 0.5 mg/mL, 3 μM compound, NADPH, 37° C., 45 min; read-out: Microsomal stability T1/2 Rat
Protocol: (§1) Metabolic stability of indole-oxadiazole derivatives of Formula I was measured by determination of the rate of compound disappearance when incubated in the presence of human or rat liver microsomes. Liver microsomes are prepared from the endoplasmic reticulum of hepatocytes and are the primary source of the most important enzymes (cytochrome P450) involved in drug metabolism. Study of drug stability in the presence of liver microsomes is accepted as a valuable model permitting rapid prediction of in vivo drug stability.
(§2) Human and rat liver microsomes were obtained from commercial sources. Test compounds (3 μM) were incubated with pooled liver microsomes (male and female). Samples were incubated for a 45 minute period and removed at 5 time points and test compounds were analysed by LC-MS/MS.
(§3) Microsomes (final protein concentration 0.5 mg/mL), 0.1 M phosphate buffer pH 7.4, and test compound (final concentration 3 μM; diluted from 10 mM stock solution to give a final DMSO concentration of 0.25%) were incubated at 37° C. prior to the addition of NADPH (final concentration 1 mM) to initiate the reaction. The final incubation volume was 25 μL. A control incubation was included for each compound tested, where 0.1 M phosphate buffer pH 7.4 was added instead of NADPH. The control compounds testosterone and 7-hydroxycoumarin were included in each experiment and all incubations were performed singularly for each compound.
(§4) Each compound was incubated for 0, 5, 15, 30, and 45 minutes. The control (minus NADPH) was incubated for 45 minutes only. The reactions were stopped by the addition of 50 μL methanol containing internal standard at the appropriate time points. The incubation plates were centrifuged at 2500 rpm for 20 minutes at 4° C. to precipitate the protein.
(§5) Following protein precipitation, the sample supernatants were combined in cassettes of up to 4 compounds and analysed using standard LC-MS/MS conditions.
(§6) From a plot of the natural logarithm of the peak area ratio (i.e., the ratio of compound peak area:internal standard peak area) against time, the gradient of the line was determined. Subsequently, half-life and intrinsic clearance were calculated using the equations below:
(§7) Eliminated rate constant (k)=(−gradient).

[2] = Human liver microsomal stability assay; format: in vitro ADME; conditions: both sexes, pH 7.4; pooled human liver microsomes 0.5 mg/mL, 3 μM compound, NADPH, 37° C., 45 min; read-out: Microsomal stability T1/2 Human
Protocol: as §1, §2, §3, §4, §5, §6, §7

cannabinoid CB1 receptor = target: T1, cannabinoid CB1 receptor (Homo sapiens, UniProt P21554); test: PathHunter β-Arrestin assay (allosteric inhibition of agonist Emax); format: cell-based; conditions: HEK293 CB1 β-arrestin cells; concentration of modulator giving 50% reduction in agonist Emax; 60 min pre-incubation
T1 construct: host or cells: HEK293 CB1 β-arrestin cells
Source text: PathHunter™ enzyme fragment complementation is the most important method to measure β-arrestin recruitment. PathHunter™ β-Arrestin assays developed by DiscoveRX are revolutionary high-throughput screening assays for monitoring GPCR activation following ligand stimulation, without an imaging instrument, fluorescent protein tag, or radioactivity.
Instead, the assays detect GPCR activation through binding of β-arrestin to the expressed GPCR of interest, and measure the interaction of the two proteins using enzyme fragment complementation (EFC). The EFC approach offers a range of benefits for screening, including signal amplification and robust performance.
The larger portion of β-gal, termed EA for enzyme acceptor, is fused to the C-terminus of β-arrestin. The smaller, complementing fragment of β-gal, the ProLink™ tag, is expressed as a fusion protein with the GPCR of interest at the C-terminus. Upon activation, the GPCR is bound by β-arrestin. The interaction of β-arrestin and the GPCR forces the interaction of ProLink and EA, thus allowing complementation of the two fragments of β-gal and the formation of a functional enzyme capable of hydrolyzing substrate and generating a […] signal.
Using the PathHunter™ CB1 kit from DiscoveRX, a cannabinoid CB1 receptor agonist is added and activates the receptor, EA, which is fused to the C-terminus of β-arrestin, and then interacts with the ProLink™ tag which is fused to the CB1 receptor. This will result in the […] signal that is recorded by a luminescence plate reader. The […] signal is directly related to the activation of the receptor, therefore a higher concentration of agonist will yield a larger […] signal. The cannabinoid agonist is added in increasing concentrations to obtain an agonist dose response curve. With pre-incubation of a potential allosteric modulator, either an enhancement of agonist activity with an allosteric enhancer or a decrease in the maximal response of the agonist with an allosteric inhibitor is expected.
All raw data are obtained as luminescence (relative light units), and are normalised and presented as a percentage of the maximal response for the cannabinoid CB1 receptor agonist CP55,940 (2-[(1R,2R,5R)-5-hydroxy-2-(3-hydroxypropyl)cyclohexyl]-5-(2-methyloctan-2-yl)phenol).
The PathHunter™ β-Arrestin assay (from DiscoveRX, Fremont, USA) was performed as follows. HEK293 CB1 β-arrestin cells were plated 48 hours before use and incubated at 37° C., 5% CO2 in a humidified incubator. Test compounds were dissolved in dimethylsulfoxide (DMSO) and diluted in optimized cell culture (OCC, as supplied by DiscoveRX) media to the required concentrations. 5 μL of test compound or vehicle solution was added to each well and incubated for 60 minutes at 37° C., 5% CO2 in a humidified incubator. 5 μL of increasing concentrations of anandamide was added to each well followed by a 90-minute incubation at 37° C., 5% CO2 in a humidified incubator. 55 μL of detection reagent (as supplied by DiscoveRX) was then added, followed by a further 90 minute incubation at room temperature in the dark. Chemiluminescence, reported in relative light units (RLU—a dimensionless value, standardised as a % of maximum stimulation with anandamide), was measured on a standard luminescence plate reader.
Data were plotted as % of maximal stimulation (Emax) caused by agonist versus the logarithm of concentration of agonist, in the presence or absence of a fixed concentration of test compound (modulator) or vehicle. For example, stimulation in the presence of agonist alone will give a value for stimulation expressed in RLU, which can be expressed as a range from 0% (at lowest agonist concentration, e.g., 1 nM) to 100% (at the highest agonist concentration, e.g., 10 μM). […]

CB1 receptor [3] = target: T2, CB1 receptor (Mus musculus, UniProt P47746); parameters: from the CB1 receptor in mouse brain membranes; from tissue; host or cells: mouse brain membranes; conditions: mouse brain membranes; cited from earlier work
CB1 receptor [4] = target: T2, CB1 receptor; conditions: equilibrium binding assay, cited from earlier work; for effect on binding of CP55940: agonist CP55940

T2 sequence (P47746 whole entry): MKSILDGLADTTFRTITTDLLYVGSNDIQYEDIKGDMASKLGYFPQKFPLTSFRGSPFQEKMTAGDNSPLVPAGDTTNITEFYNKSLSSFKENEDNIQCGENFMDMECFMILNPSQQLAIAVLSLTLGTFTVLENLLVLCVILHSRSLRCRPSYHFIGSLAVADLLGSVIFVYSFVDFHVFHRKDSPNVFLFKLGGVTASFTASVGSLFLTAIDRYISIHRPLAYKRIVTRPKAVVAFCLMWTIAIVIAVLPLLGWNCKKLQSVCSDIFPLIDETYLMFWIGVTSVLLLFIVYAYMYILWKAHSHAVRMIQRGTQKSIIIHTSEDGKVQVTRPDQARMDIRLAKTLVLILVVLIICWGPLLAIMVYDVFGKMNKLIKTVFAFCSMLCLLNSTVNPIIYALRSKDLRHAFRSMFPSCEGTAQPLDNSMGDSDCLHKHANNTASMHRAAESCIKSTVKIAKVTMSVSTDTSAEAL
T1 sequence (P21554 whole entry): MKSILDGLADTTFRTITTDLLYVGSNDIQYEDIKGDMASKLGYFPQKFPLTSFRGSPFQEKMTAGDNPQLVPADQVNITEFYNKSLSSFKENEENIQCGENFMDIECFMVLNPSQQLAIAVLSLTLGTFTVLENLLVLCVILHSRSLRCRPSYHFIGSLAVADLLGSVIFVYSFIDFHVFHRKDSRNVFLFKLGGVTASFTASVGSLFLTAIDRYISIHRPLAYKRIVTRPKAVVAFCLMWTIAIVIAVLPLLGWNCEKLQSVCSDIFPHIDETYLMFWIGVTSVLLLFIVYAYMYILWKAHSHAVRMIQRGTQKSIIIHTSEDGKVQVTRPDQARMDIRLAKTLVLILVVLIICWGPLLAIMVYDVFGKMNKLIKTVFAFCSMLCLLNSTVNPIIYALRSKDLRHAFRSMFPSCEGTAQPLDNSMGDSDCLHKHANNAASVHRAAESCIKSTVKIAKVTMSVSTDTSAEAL

SMILES	half-life at 3 μM [1] [min]	half-life at 3 μM [2] [min]	melting point [°C]	IC50 (cannabinoid CB1 receptor) [nM]	effect on dissociation of radiolabelled CB1 receptor agonist CP55940 (CB1 receptor [3])	effect on binding of CP55940 (CB1 receptor [4])	effect on binding of radiolabelled inverse agonist SR141716A (CB1 receptor [4])
CCc1c(-c2nnc(SCc3ccccc3)o2)[nH]c2ccc(Cl)cc12 [ABM328, 2-(Benzylthio)-5-(5-chloro-3-ethyl-1H-indol-2-yl)-1,3,4-oxadiazole]	40	46	180 to 182	58	–	–	–
CCc1c(C(=O)NC2CCN(Cc3ccccc3)C2)[nH]c2ccc(Cl)cc12 (stereo not drawn) [ORG29647]	–	–	–	–	slowing of the dissociation	increase	decrease
O=S(=O)(NCc1ccc(-c2ccc(F)nc2F)cc1)c1cc2cc(Cl)ccc2[nH]1 [Reference compound 3 (ABD1085), reference compound]	48	39	–	–	–	–	–
CCc1c(-c2nnc(Nc3ccc(F)cc3)o2)[nH]c2ccc(Br)cc12 [ABM338, 5-(5-Bromo-3-ethyl-1H-indol-2-yl)-N-(4-fluorophenyl)-1,3,4-oxadiazol-2-amine]	292	174	243 to 245	1	–	–	–
CCc1c(C(=O)NCCc2ccc(N3CCCCC3)cc2)[nH]c2ccc(Cl)cc12 [Reference compound 1 (Org27569)]	28	32	–	–	slowing of the dissociation	increase	decrease
O=S(=O)(NCc1ccc(-c2ccc(F)cc2F)cn1)c1cc2cc(Cl)ccc2[nH]1 [Reference compound 2 (ABD1075), reference compound]	32	56	–	–	–	–	–
CCc1c(C(=O)NCCc2ccc(N(C)C)cc2)[nH]c2ccc(F)cc12 [ORG27759]	–	–	–	–	slowing of the dissociation	increase	decrease
CCc1c(-c2nnc(SCc3ccc(F)cc3)o2)[nH]c2ccc(Br)cc12 [ABM340, 2-(5-Bromo-3-ethyl-1H-indol-2-yl)-5-((4-fluorobenzyl)thio)-1,3,4-oxadiazole]	23	40	185 to 187	19	–	–	–
